Assay results as given in US8207135B2, “Compositions for and methods of enhancing the immune response to antigens” (Wittycell, priority 2007, dated 2012).

Assays:
[1] = tested on: Ova-specific target cells; experiment: in vivo cytotoxic specific cell lysis assay (CD8+ T cell response) in immunized mice; design: species or system mouse; settings: for specific lysis of Ova-specific target cells in blood: Example 1, FIG. 1, 1 μg adjuvant with 50 μg Ova, day 11; for specific lysis of Ova-specific target cells in blood / average Ova-specific cell lysis / average Ova-specific cytotoxic response: IV; for average Ova-specific cell lysis: Example 4, FIG. 6, 400 μg Ova with or without 1 μg adjuvant (PBS-57 new formulation); for average Ova-specific cell lysis / average Ova-specific cytotoxic response / average OVA-specific cytotoxic response: day 11 blood; for percentage of specific lysis of the target cells by CD8+ T cells: Example 5 Experiment B, FIG. 8, 50 μg OVA with 10 ng adjuvant intramuscularly; for average Ova-specific cytotoxic response: Example 2, FIG. 2; for average Ova-specific cytotoxic response / average OVA-specific cytotoxic response: 400 μg Ova with or without 1 μg adjuvant; for average OVA-specific cytotoxic response: Example 2, FIG. 3, IM
[2] = tested on: CD8+ T cells responsive to OVA; experiment: SIINFEKL pentamer assay of OVA-specific CD8+ T cells (FACS); type: in vivo, mouse; settings: IM, days 0 and 14, blood day 21
Experimental: To verify the results obtained using the in vivo cytotoxicity assay described in the Examples above, similar experiments were performed and CD8+ T cell activation was determined by measuring the percentage of OVA-specific CD8+ T cells using a pentamer assay. Briefly, mice were injected intramuscularly with the indicated amounts of OVA and test adjuvant compound at either 1 μg or 100 ng per mouse, respectively on day 0 as follows:
Experiment A: • Group 1: 100 μl of PBS; • Group 2: 50 μg of Ova into 100 μl PBS; • Group 3: 50 μg of Ova with 1 μg αGalCer; • Group 4: 50 μg of Ova with 1 μg PBS-11 • Group 5: 50 μg of Ova with 1 μg PBS-14 • Group 6: 50 μg of Ova with 1 μg PBS-57 • Group 7: 50 μg of Ova with 1 μg PBS-96
Experiment B: • Group 1: 100 μl of PBS; • Group 2: 50 μg of Ova into 100 μl PBS; • Group 3: 50 μg of Ova with 100 ng αGalCer; • Group 4: 50 μg of Ova with 100 ng PBS-11 • Group 5: 50 μg of Ova with 100 ng PBS-14 • Group 6: 50 μg of Ova with 100 ng PBS-57 • Group 7: 50 μg of Ova with 100 ng PBS-96 A second injection was administered to the mice on day 14 and blood was collected from the mice on day 21. The lymphocytes were collected and analyzed by FACS analysis using H-2 K^b SIINFEKL pentamer and CD8 antibody to detect CD8+ T cells responsive to OVA.

[3] = tested on: OVA-specific IgG1; experiment: OVA-specific IgG1 ELISA after intramuscular immunization; type: in vivo, mouse; settings: FIG. 11; IM, 50 μg OVA with 100 ng adjuvant, 14 days post-injection
Experimental: (§1) Mice (6 per group) were injected intramuscularly with 50 μg of OVA either alone or in combination with 100 ng of the indicated adjuvants (Freund's adjuvant was used as a positive control) as follows: • Group 1: […] of Ova with CFA/IFA (Positive control) • Group 2: 50 μg of Ova • Group 3: 50 μg of Ova and 100 ng of αGalCer • Group 4: 50 μg of Ova and 100 ng of PBS-11 • Group 5: 50 μg of Ova and 100 ng of PBS-14 • Group 6: 50 μg of Ova and 100 ng of PBS-57 • Group 7: 50 μg of Ova and 100 ng of PBS-96 At 14 days post-injection, blood samples were collected and ELISAs for IgG1 and IgG2a were performed using mouse monoclonal antibodies specific for OVA isotype IgG1 or IgG2a. The results are shown as the titer of the antibody in peripheral blood in ng/ml. The results for IgG1 are depicted in FIG. 11 and those for IgG2a are depicted in FIG. 12.

[4] = tested on: IFNγ; experiment: in vivo IFNγ release in sera by ELISA 24 hours after inoculation; design: species or system C57BL/6 mice; settings: Quantikine kit, FIG. 4
Experimental: To test the ability of the adjuvant test compounds to stimulate in vivo cytokine release, C57BL/6 mice were administered the compounds at different concentrations intravenously and the production of IFNγ in sera was measured 24 hours later by ELISA. Groups of 3 mice were inoculated intravenously (tail vein) on day 0 as follows: • Group 1: 100 μl of PBS alone • Group 2: 1 μg of αGalCer in 100 μl of PBS • Group 3: 100 ng of αGalCer in 100 μl of PBS • Group 4: 1 ng of αGalCer in 100 μl of PBS • Group 5: 0.1 ng of αGalCer in 100 μl of PBS • Group 6: 100 ng of αGalCer and 100 μg of Ova in 100 μl of PBS • Group 7: 1 μg of PBS-57 in 100 μl of PBS • Group 8: 100 ng of PBS-57 in 100 μl of PBS • Group 9: 1 ng of PBS-57 in 100 μl of PBS • Group 10: 0.1 ng of PBS-57 in 100 μl of PBS • Group 11: 100 ng of PBS-57 and 400 μg of Ova into 100 μl of PBS • Group 12: 1 μg of PBS-14 in 100 μl of PBS • Group 13: 100 ng of PBS-14 in 100 μl of PBS • Group 14: 1 ng of PBS-14 in 100 μl of PBS • Group 15: 0.1 ng of PBS-14 in 100 μl of PBS • Group 16: 100 ng of PBS-14 and 400 μg of Ova in 100 μl of PBS • Group 17: 1 μg of PBS-96 in 100 μl of PBS • Group 18: 100 ng of PBS-96 in 100 μl of PBS • Group 19: 1 ng of PBS-96 in 100 μl of PBS • Group 20: 0.1 ng of PBS-96 in 100 μl of PBS • Group 21: 100 ng of PBS-96 and 400 μg of Ova in 100 μl of PBS. 24 hours after inoculation, blood samples were collected from the mice and IFNγ levels were detected by ELISA kit. Two ELISA kits were used, Quantikine mouse IFNγ (RD systems) was used to test all samples and ELISA mIFNγ (Diaclone) was used to test group 1, 2, 3, 6, 7, 8, 11, 12, 13, 16, 17, 18 and 21. All sera were diluted before use in ELISA as follows:
Results are expressed as IFNγ concentration (pg/ml) in sera and take into account the dilution factor. FIG. 4 depicts results using the Quantikine mouse IFNγ kit by RD systems. FIG. 4A depicts results of IFNγ levels for mice immunized with PBS-57, FIG. 4B depicts results of IFNγ levels for mice immunized with PBS-14, FIG. 4C depicts results of IFNγ levels for mice immunized with PBS-96 and FIG. 4D depicts results of IFNγ levels for mice immunized with αGalCer. At 0.1 ng, all adjuvant candidates induce cytokine release, but mice immunized with αGalCer produced three- or four-fold less IFNγ than mice immunized with PBS-57, PBS-14 or PBS-96 (1540.57±397.53 pg/ml, 4398.05±880.86 pg/ml, 6669.31±1231.82 pg/ml, 5823.33±720.69 pg/ml respectively).
Another set of mice were used to compare the ability of adjuvant compounds to stimulate in vivo cytokine release by the method described above. Five groups of C57BL/6 mice were administered 100 ng of PBS-57, PBS-14, PBS-96, or PBS-11 in 100 μl PBS or 100 μl PBS alone intravenously. The production of IFNγ in sera was measured 24 hours later by ELISA. FIG. 5 depicts results for mice immunized with 100 ng of PBS-11, PBS-96, PBS-14 and PBS-57.

[5] = tested on: OVA specific IgG2a; experiment: OVA-specific IgG2a ELISA after intramuscular immunization; type: in vivo, mouse; settings: FIG. 12; IM, 50 μg OVA with 100 ng adjuvant, 14 days post-injection
Experimental: as §1

[6] = Example 6 Experiment A, FIG. 9, 50 μg Ova with 1 μg adjuvant

For `CCCCCCCCCCCCCCCCCCCCCCCCCC(=O)N[C@@H](CO[C@H]1O[C@H](CNC(=O)CCCC[C@@H]2SC[C@@H]3NC(=O)N[C@@H]32)[C@H](O)[C@H](O)[C@H]1O)[C@H](O)[C@H](O)CCCCCCCCCCCCCC` [PBS-11, reference compound], the “specific lysis of Ova-specific target cells in blood” value [1] was “did not result in specific lysis of cells”, the “average Ova-specific cell lysis” value [1] was 32.3±2.5% and the “percentage of specific lysis of the target cells by CD8+ T cells” value (shortened to “percentage … by CD8+ T cells”) [1] was “indistinguishable from the controls”. The “percentage of OVA specific CD8+ T cells” value [2, 6] was “not as effective”.

`CCCCCCCCCCCCCCCCCCCCCCCCCC(=O)N[C@@H](CO[C@H]1O[C@H](CNC(C)=O)[C@H](O)[C@H](O)[C@H]1O)[C@H](O)[C@H](O)CCCCCCCCCCCCCC` [PBS-14] was tested, and the “OVA-specific IgG1 titer in peripheral blood” value [3] was “able to elicit a robust IgG1 titer”, the “IFNγ concentration in sera” value ([4]; 0.1 ng IV) was 6669.31 ± 1231.82 pg/mL and the “IFNγ concentration in sera” value ([4]; 1 ng IV) was 7481.15 ± 3454.03 pg/mL. For the same molecule, the “IFNγ concentration in sera” value ([4]; 100 ng IV) was 19582.18 ± 3421.20 pg/mL, the “IFNγ concentration in sera” value ([4]; 1 μg IV) was 16392.53 ± 5957.70 pg/mL and the “OVA specific IgG2a titer in peripheral blood” value [5] was “about as well as Freund's adjuvant”. The “specific lysis of Ova-specific target cells in blood” value [1] was “resulted in cytotoxic lysis of Ova-specific target cells”, the “average Ova-specific cytotoxic response” value [1] was 83.3±6.1% and the “average OVA-specific cytotoxic response” value [1] was 52.07±29.56%. For the same molecule, the “average Ova-specific cell lysis” value [1] was 83.3±6.1%, the “enhancement of the CD8+ T cell response (specific lysis) at low doses” value ([1]; Example 5 Experiments A and B, FIGS. 7 and 8, 50 μg OVA with 100 ng or 10 ng adjuvant intramuscularly) was “unexpectedly better than other adjuvants” and the “percentage of OVA specific CD8+ T cells” value [2, 6] was “enhanced the percentage of OVA specific CD8+ T cells”. For the same molecule, the “percentage of OVA specific CD8+ T cells” value ([2]; Example 6 Experiment B, FIG. 10, 50 μg Ova with 100 ng adjuvant) was “surprisingly much better at enhancing the CD8+ T cell response”.

`CCCCCCCC/C=C\CCCCCCCCCCCCCC(=O)N[C@@H](CO[C@H]1O[C@H](CNC(C)=O)[C@H](O)[C@H](O)[C@H]1O)[C@H](O)[C@H](O)CCCCCCCCCCCCCC` [PBS-57, reference compound] was tested, and the “OVA-specific IgG1 titer in peripheral blood” value [3] was “able to elicit a robust IgG1 titer”, the “IFNγ concentration in sera” value ([4]; 0.1 ng IV) was 4398.05 ± 880.86 pg/mL and the “IFNγ concentration in sera” value ([4]; 1 ng IV) was 11425.98 ± 833.04 pg/mL. For the same molecule, the “IFNγ concentration in sera” value ([4]; 100 ng IV) was 21432.76 ± 4312.76 pg/mL, the “IFNγ concentration in sera” value ([4]; 1 μg IV) was 3353.45 ± 867.57 pg/mL and the “average Ova-specific cytotoxic response” value [1] was 88.1±6.2%. For the same molecule, the “average OVA-specific cytotoxic response” value [1] was 56.11±13.34%, the “average Ova-specific cell lysis” value [1] was 88.1±6.2% and the “percentage … by CD8+ T cells” value [1] was “indistinguishable from the controls”. The “percentage of OVA specific CD8+ T cells” value [2, 6] was “enhanced the percentage of OVA specific CD8+ T cells”.

`CCCCCCCCCCCCCCCCCCCCCCCCCC(=O)N[C@@H](CO[C@H]1O[C@H](CO)[C@H](O)[C@H](O)[C@H]1O)[C@H](O)[C@H](O)CCCCCCCCCCCCCC` [αGalCer, α-galactosyceramide, reference compound] was tested, and the “IFNγ concentration in sera” value ([4]; 0.1 ng IV) was 1540.57 ± 397.53 pg/mL, the “IFNγ concentration in sera” value ([4]; 1 ng IV) was 3802.99 ± 586.02 pg/mL and the “IFNγ concentration in sera” value ([4]; 100 ng IV) was 7714.37 ± 3529.07 pg/mL. For the same molecule, the “average Ova-specific cytotoxic response” value [1] was 79.9±0.8%, the “average OVA-specific cytotoxic response” value [1] was −5.85±11.01% and the “percentage … by CD8+ T cells” value [1] was “indistinguishable from the controls”. For the same molecule, the “percentage of OVA specific CD8+ T cells” value [2, 6] was “not as effective”.

B1: ovalbumin (protein, UniProt P01012 2-386, looked up)
Ovalbumin: GSIGAASMEFCFDVFKELKVHHANENIFYCPIAIMSALAMVYLGAKDSTRTQINKVVRFDKLPGFGDSIEAQCGTSVNVHSSLRDILNQITKPNDVYSFSLASRLYAEERYPILPEYLQCVKELYRGGLEPINFQTAADQARELINSWVESQTNGIIRNVLQPSSVDSQTAMVLVNAIVFKGLWEKAFKDEDTQAMPFRVTEQESKPVQMMYQIGLFRVASMASEKMKILELPFASGTMSMLVLLPDEVSGLEQLESIINFEKLTEWTSSNVMEERKIKVYLPRMKMEEKYNLTSVLMAMGITDVFSSSANLSGISSAESLKISQAVHAAHAEINEAGREVVGSAEAGVDAASVSEEFRADHPFLFCIKHIATNAVLFFGRCVSP
notes: nominal antigen, Ovalbumin grade VII, Sigma
For B1, the “average Ova-specific cytotoxic response” value [1] was 11.8±14.4%, the “average OVA-specific cytotoxic response” value [1] was 1.60±14.33% and the “average Ova-specific cell lysis” value [1] was 11.8±14.4%.
